Test results published in ChEMBL document CHEMBL3045618, “Effect of seven new orchard pesticides on Galendromus occidentalis in laboratory studies” (2009).

What was measured:
Assay type in all cases: functional
Galendromus occidentalis [1] = assay: Toxicity against Metaseiulus occidentalis adults in bean leaf disk infested with two-spotted spider mites assessed as repellency at 0.1341 g AI/L treated using worst-case laboratory exposure procedure measured after 72 hr (reference value: 16.1%)
Galendromus occidentalis [2] = assay: Toxicity against Metaseiulus occidentalis adults in bean leaf disk infested with two-spotted spider mites assessed as repellency at 0.1341 g AI/L treated using worst-case laboratory exposure procedure measured after 48 hr (reference value: 13.6%)
Galendromus occidentalis [3] = assay: Toxicity against Metaseiulus occidentalis adults in bean leaf disk infested with two-spotted spider mites assessed as repellency at 0.1341 g AI/L treated using worst-case laboratory exposure procedure measured after 24 hr (reference value: 3.6%)
Galendromus occidentalis [4] = assay: Ovicidal activity against Metaseiulus occidentalis eggs in bean leaf disk infested with two-spotted spider mites assessed as corrected cumulative mortality at 442 g/L SC formulation treated using worst-case laboratory exposure procedure measured after 144 hr (reference value: 0.7%)
Galendromus occidentalis [5] = assay: Toxicity against Metaseiulus occidentalis adults in bean leaf disk infested with two-spotted spider mites assessed as average number of eggs laid (fecundity) at 0.1341 g AI/L treated using worst-case laboratory exposure procedure measured after 72 hr (reference value: 2.23/day)
Galendromus occidentalis [6] = assay: Toxicity against Metaseiulus occidentalis adults in bean leaf disk infested with two-spotted spider mites assessed as corrected mortality at 0.1341 g AI/L treated using worst-case laboratory exposure procedure measured after 72 hr
Galendromus occidentalis [7] = assay: Toxicity against Metaseiulus occidentalis adults in bean leaf disk infested with two-spotted spider mites assessed as average number of eggs laid (fecundity) at 0.1341 g AI/L treated using worst-case laboratory exposure procedure measured after 48 hr (reference value: 2.30/day)
Galendromus occidentalis [8] = assay: Toxicity against Metaseiulus occidentalis adults in bean leaf disk infested with two-spotted spider mites assessed as average number of eggs laid (fecundity) at 0.1341 g AI/L treated using worst-case laboratory exposure procedure measured after 24 hr (reference value: 2.11/day)
Galendromus occidentalis [9] = assay: Toxicity against Metaseiulus occidentalis adults in bean leaf disk infested with two-spotted spider mites assessed as corrected mortality at 2x0.1341 g AI/L treated using worst-case laboratory exposure procedure measured after 72 hr
Galendromus occidentalis [10] = assay: Toxicity against Metaseiulus occidentalis adults in bean leaf disk infested with two-spotted spider mites assessed as corrected mortality at 4x0.1341 g AI/L treated using worst-case laboratory exposure procedure measured after 72 hr

Structure (SMILES): CC[C@H]1CCC[C@H](O[C@H]2CC[C@H](N(C)C)[C@@H](C)O2)[C@@H](C)C(=O)C2=C[C@@H]3[C@@H](C=C(C)[C@@H]4C[C@@H](O[C@@H]5O[C@@H](C)[C@H](OC)[C@@H](OC)[C@H]5OC)C[C@@H]34)[C@@H]2CC(=O)O1.CC[C@H]1CCC[C@H](O[C@H]2CC[C@H](N(C)C)[C@@H](C)O2)[C@@H](C)C(=O)C2=C[C@@H]3[C@@H](C=C[C@@H]4C[C@@H](O[C@@H]5O[C@@H](C)[C@H](OC)[C@@H](OC)[C@H]5OC)C[C@@H]34)[C@@H]2CC(=O)O1
- Repellency (Galendromus occidentalis [1]): 28.8%
- Repellency (Galendromus occidentalis [2]): 24.4%
- Repellency (Galendromus occidentalis [3]): 10.9%
- mortality at 442000 µg/mL (stock) (Galendromus occidentalis [4]): 6.6%
- Activity (Galendromus occidentalis [5]): 2.28 day⁻¹
- mortality (Galendromus occidentalis [6]): 0.4%
- Activity (Galendromus occidentalis [7]): 1.59 day⁻¹
- Activity (Galendromus occidentalis [8]): 1.57 day⁻¹
- mortality (Galendromus occidentalis [9]): 0%
- mortality (Galendromus occidentalis [10]): 0%
